biological target: Stimulator of interferon genes protein (Homo sapiens, UniProt Q86WV6); experiment: Agonist activity at STING in digitonin-permeabilized human THP1-Dual cells expressing NF-kappaB-SEAP and IRF-Lucia luciferase reporter assessed as increase in IRF-luciferase activation incubated for 24 hrs by QUANTI-Luc assay; format: cell-based
Sequence (Q86WV6 whole entry): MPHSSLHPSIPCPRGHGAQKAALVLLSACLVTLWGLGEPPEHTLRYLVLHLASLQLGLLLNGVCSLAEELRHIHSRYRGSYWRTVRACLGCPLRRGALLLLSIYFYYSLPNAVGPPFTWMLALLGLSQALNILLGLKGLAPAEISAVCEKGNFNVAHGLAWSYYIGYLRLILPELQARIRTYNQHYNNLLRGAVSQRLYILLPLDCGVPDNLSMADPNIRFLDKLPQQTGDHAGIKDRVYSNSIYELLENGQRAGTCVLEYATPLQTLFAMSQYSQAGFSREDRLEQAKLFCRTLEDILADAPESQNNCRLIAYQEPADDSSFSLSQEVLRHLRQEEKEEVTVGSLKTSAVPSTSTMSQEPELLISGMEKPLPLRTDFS

EC50 | SMILES
20 nM | CCc1nc(C)sc1C(=O)Nc1nc2cc(C(N)=O)cc(OCCCO)c2n1C/C=C/Cn1c(NC(=O)c2cc(C)nn2CC)nc2cc(C(N)=O)cc(OC)c21
5000 nM | CCc1nn(C)cc1C(=O)Nc1nc2cc(C(N)=O)cc(OC)c2n1C/C=C/Cn1c(NC(=O)c2cn(C)nc2CC)nc2cc(C(N)=O)cc(OCCCO)c21
20 nM | CCc1nn(C)cc1C(=O)Nc1nc2cc(C(N)=O)cc(OCCCO)c2n1C/C=C/Cn1c(NC(=O)c2cc(C)nn2CC)nc2cc(C(N)=O)cc(OC)c21
10 nM | CCn1nc(C)cc1C(=O)Nc1nc2cc(C(N)=O)cc(OC)c2n1C/C=C/Cn1c(NC(=O)c2cc(C)nn2CC)nc2cc(C(N)=O)cc(OCCCN)c21
9 nM | CCc1nc(C)oc1C(=O)Nc1nc2cc(C(N)=O)cc(OC)c2n1C/C=C/Cn1c(NC(=O)c2cc(C)nn2CC)nc2cc(C(N)=O)cc(OCCCO)c21
1 nM | CCc1nc(C)oc1C(=O)Nc1nc2cc(C(N)=O)cc(OCCCO)c2n1C/C=C/Cn1c(NC(=O)c2cc(C)nn2CC)nc2cc(C(N)=O)cc(OC)c21
1 nM | CCn1nc(C)cc1C(=O)Nc1nc2cc(C(N)=O)cc(OC)c2n1C/C=C/Cn1c(NC(=O)c2cc(C)nn2CC)nc2cc(C(N)=O)cc(OCCCO)c21
18 nM | CCn1nc(C)cc1C(=O)Nc1nc2cc(C(N)=O)cc(OC)c2n1C/C=C/Cn1c(NC(=O)c2cc(C)nn2CC)nc2cc(C(N)=O)cc(OCCCC(=O)O)c21

Second part, the molecule before the results:

SMILES | EC50
COc1cc(C(N)=O)cc2nc(NC(=O)c3nc(C)oc3C)n(C/C=C/Cn3c(NC(=O)c4nc(C)oc4C)nc4cc(C(N)=O)cc(OCCCO)c43)c12 | > 100000 nM
CCc1nc(C)oc1C(=O)Nc1nc2cc(C(N)=O)cc(OCCCO)c2n1C/C=C/Cn1/c(=N/C(=O)c2cc(C)nn2CC)sc2cc(C(N)=O)cc(OC)c21 | 20 nM
CCc1nc(C)oc1C(=O)Nc1nc2cc(C(N)=O)cc(OCCCO)c2n1C/C=C/Cn1c(NC(=O)c2cc(C)nn2CC)nc2cc(C(N)=O)cnc21 | 4 nM
CCc1ncoc1C(=O)/N=c1\sc2cc(C(N)=O)cc(OC)c2n1C/C=C/Cn1c(NC(=O)c2ocnc2CC)nc2cc(C(N)=O)cc(OCCCO)c21 | > 100000 nM
CCn1nc(C)cc1C(=O)Nc1nc2cc(C(N)=O)cnc2n1C/C=C/Cn1c(NC(=O)c2cc(C)nn2CC)nc2cc(C(N)=O)cc(OCCCO)c21 | 60 nM
CCn1nc(C)cc1C(=O)Nc1nc2cc(C(N)=O)cnc2n1C/C=C/Cn1c(NC(=O)c2oc(C)nc2C)nc2cc(C(N)=O)cc(OCCCO)c21 | 3200 nM
COc1cc(C(N)=O)cc2nc(NC(=O)c3cnc(C)n3C)n(C/C=C/Cn3c(NC(=O)c4cnc(C)n4C)nc4cc(C(N)=O)cc(OCCCO)c43)c12 | > 100000 nM
CCc1nc(C)oc1C(=O)/N=c1\sc2cc(C(N)=O)cc(OC)c2n1C/C=C/Cn1c(NC(=O)c2oc(C)nc2CC)nc2cc(C(N)=O)cc(OCCCO)c21 | 60 nM
CCn1nc(C)cc1C(=O)/N=c1\sc2cc(C(N)=O)cc(OC)c2n1C/C=C/Cn1c(NC(=O)c2cc(C)nn2CC)nc2cc(C(N)=O)cc(OCCCO)c21 | 5 nM
COc1cc(C(N)=O)cc2nc(NC(=O)c3cnc(C)o3)n(C/C=C/Cn3c(NC(=O)c4cnc(C)o4)nc4cc(C(N)=O)cc(OCCCO)c43)c12 | > 100000 nM
CCc1nc(C)oc1C(=O)Nc1nc2cc(C(N)=O)cnc2n1C/C=C/Cn1c(NC(=O)c2oc(C)nc2CC)nc2cc(C(N)=O)cc(OCCCO)c21 | 7 nM
CCc1nc(C)oc1C(=O)Nc1nc2cc(C(N)=O)cc(OC)c2n1C/C=C/Cn1c(NC(=O)c2oc(C)nc2CC)nc2cc(C(N)=O)cc(OCCCO)c21 | 1 nM
CCn1nc(C)cc1C(=O)/N=c1\sc2cc(C(N)=O)cc(OC)c2n1C/C=C/Cn1c(NC(=O)c2oc(C)nc2C)nc2cc(C(N)=O)cc(OCCCO)c21 | > 100000 nM
CCc1nc(C)sc1C(=O)Nc1nc2cc(C(N)=O)cc(OC)c2n1C/C=C/Cn1c(NC(=O)c2sc(C)nc2CC)nc2cc(C(N)=O)cc(OCCCO)c21 | 270 nM
CCc1nc(C)oc1C(=O)/N=c1\sc2cc(C(N)=O)cc(OCCCO)c2n1C/C=C/Cn1c(NC(=O)c2oc(C)nc2CC)nc2cc(C(N)=O)cnc21 | 150 nM
CCc1nc(C)oc1C(=O)Nc1nc2cc(C(N)=O)cc(OC)c2n1C/C=C/Cn1c(NC(=O)c2cnc(C)o2)nc2cc(C(N)=O)cc(OCCCO)c21 | > 100000 nM
CCc1nc(C)oc1C(=O)/N=c1\sc2cc(C(N)=O)cnc2n1C/C=C/Cn1c(NC(=O)c2oc(C)nc2CC)nc2cc(C(N)=O)cc(OCCCO)c21 | 90 nM
